From EP0839036B1, “USE OF 1,4-DIHYDROPYRIDINE DERIVATIVES IN THE PREVENTION AND THERAPY OF ATHEROSCLEROTIC DEGRADATION OF ARTERIAL WALLS” (RECORDATI S.A. CHEMICAL and PHARMACEUTICAL COMPANY, priority 1995, dated 1997)
Like-named read-outs stand apart in the source and are kept apart here.

Tests used:
[1] = system: macrophages loaded with cholesterol ester; assay: Cholesterol esterification in macrophages loaded with cholesterol ester; format: cell-based, mouse; conditions: Figure 4; for relative potency on cholesterol esterification: cholesterol ester loaded macrophages
Description: Cholesterol esterification induced by AcLDL in mouse peritoneal macrophages was investigated as follows. Mouse peritoneal macrophages were obtained by peritoneal lavage from mice (Balb/c Charles River, Calco, Italy) three days after intraperitoneal injection of thioglycolate. Cells (2-3x10^6) were plated in 35 mm wells with Dulbecco's minimum essential medium containing 10% fetal bovine serum. After 3 hours, the dishes were washed to eliminate unattached cells and maintained in Dulbecco's minimum essential medium plus 10% fetal bovine serum for 24 hours before use. After cell plating, experiments were performed at 37°C in serum free Dulbecco's minimum essential medium containing 0.2% essentially fatty acid-free bovine serum albumin plus the indicated additions. Human LDL (d=1.019-1.063 g/ml) were isolated from plasma of healthy volunteers by sequential ultracentrifugation (Beckman L5-50, Palo Alto, CA). For acetylation, LDL were dialysed against 0.15 M NaCl, pH 7.4, diluted with an equal volume of saturated sodium acetate and treated with acetic anhydride. For [^125I]AcLDL, lipoproteins were labelled with sodium [^125I]iodide desalted by gel filtration on Sephadex G-25 eluted with phosphate buffered saline. Specific activity was 100-200 cpm/ng protein. Trichloroacetic acid non precipitable radioactivity was below 2% of total. All lipoproteins were sterile filtered. Cells were incubated for 24 hours with the tested compounds. After substitution of the medium with an identical one, incubation was continued for additional 24 hours. During this second incubation [^125I]AcLDL were added (50 µg/ml). Cholesterol esterification was measured after addition of [1-^14C] oleic acid ([…] sample) complexed with bovine serum albumin during the last 1 or 2 hours of incubation and subsequent determination of radioactivity associated with cellular cholesteryl esters. Where indicated cells were enriched with cholesterol by 24 hours incubation with 50 µg/ml of AcLDL before drug addition and experimental determinations.
Another set of experiments was performed to evaluate the effect of lercanidipine on cholesterol esterification in macrophages loaded with cholesterol ester before the addition of the compound, this condition being the same as in foam cells. Cells are loaded with cholesteryl esters by exposure for 24 hours to a medium containing 50 µg acetyl LDL.

renal hypertensive dogs = assay: Blood pressure in renal hypertensive dogs, oral administration; format: in vivo, beagle dogs; conditions: for ED25 (dose inducing 25% decrease in DBP at peak effect), 95% C.L.: renal hypertensive dogs, linear regression analysis
Description: The antihypertensive effects of oral assumption of lercanidipine and its enantiomers were tested in renal hypertensive dogs.
Male beagle dogs weighing 12-13 kg, aged 1-3 years (Nossan Allevamenti, Italy) were used. Chronic sustained hypertension was induced by bilateral renal artery constriction, according to the Goldblatt method "two-kidney, two clip hypertension". Under barbiturate anaesthesia (35 mg/kg iv.) during two different surgical interventions one month apart from each other, both renal arteries were clipped with original renal silver clips and narrowed by about 60-70 %. After two months from the last intervention, an experimental renal hypertension was produced and the animals were suitable for the implantation of a catheter. Under sodium pentobarbital anaesthesia (35 mg/kg iv.), in sterile conditions, the dogs were catheterized by inserting an indwelling cannula (PE 200 Clay Adams) into the ascending aorta through the right common carotid artery. The catheter was subcutaneously exteriorized at the back of the neck, filled with heparinized saline solution and daily flushed to prevent clotting. After a week to recover from surgery, the animals were connected to a HP 1290A pressure transducer connected to an HP 8805B carrier amplifier of a Hewlett Packard HP 7700 multichannel polygraph, in order to monitor the arterial blood pressure. Heart rate was manually computed from the pressure trace.
All animals were alternatively treated with placebo, lercanidipine and its (R)- and (S)-enantiomers. The drugs were administered by the oral route with a straight round aseptic tip catheter (Pores Serlat - France). The drugs were suspended in aqueous 0.5% Methocel A4C plus Antifoam M10 (10%). The administered volume was 1 ml/kg. The suspending medicine was used as placebo. During experimental performance, the arterial blood pressure was continuously recorded 30 minutes before (Basal Values) and up to 8 hours after drug administration.
The ED25 values (dose inducing 25% decrease in DBP at peak effect) were evaluated by linear regression analysis and are summarized in Table 4.

[2] = system: rat aortic smooth muscle cells (myocytes); assay: Myocytes growth inhibition measured by cell count (rat); format: cell-based; conditions: 72 h, cell count after 72 hours with 10% fetal calf serum, read-out: IC50 (concentration required to inhibit cell growth by 50%)
[3] = system: cell-mediated oxidation of LDL; assay: Time course of cell-mediated LDL oxidation; format: cell-based; conditions: 30 µM, after 10 hours incubation; Figure 7
Description: The antioxidant capacity of lercanidipine and its enantiomers was investigated also on cell-mediated oxidation. This was evaluated by incubating ethylenediaminetetraacetic acid free LDL under sterile conditions With 5 µM Cu^++ (100 µg Apo B/ml) in the presence of J774 cells or alternatively with EAhy-926 cells. Oxidation was blocked after 22 hours incubation by adding butylated hydroxytoluene to the medium (final concentration 40 µM) dissolved in ethanol. The extent of lipid peroxidation was measured by determining the percentage inhibition of aldehydic breakdown products using the thiobarbituric acid assay [A.N. Hanna et al., Biochem. Pharmacol. 45, 753 (1993)]. Briefly, to 0.250 ml of the incubated samples, 0.750 ml of trichloroacetic acid ([…]) was added followed by 0.750 ml of thiobarbituric acid (0.67% w/v). The samples were heated at 100°C for 20 min, followed by cooling and centrifugation. Malondialdehyde equivalents were calculated using 1,1,3,3-tetramethoxy-propane as standard.
In the above experiments of cell-mediated oxidation the effects of lercanidipine were investigated after 22 hours incubation. […]

LDL = assay: Cu++-mediated LDL oxidation, conjugated diene formation at 234 nm; format: physicochemical, human; parameters: Lag time: unit: min; conditions: for Lag time: 20 µM CuSO4, 25°C
Description: Lercanidipine antioxidant capacity was evaluated by incubating LDL With 20 µM Cu^++ in the presence or absence of different concentrations of the tested compound (0.01 µM - 50 µM). LDL oxidation Was followed by monitoring conjugated diene formation at 234 nm. The experimental conditions were as follows. LDL (d = 1.019-1.063) were isolated from human pooled plasma by sequential ultracentrifugation at 4°C and 40,000 rpm in a 50Ti rotor, using a L5-50 ultracentrifuge (Beckman, Palo Alto, CA). LDL were then dialyzed against 0.15 M NaCl containing 0.01% ethylenediaminetetraacetic acid pH 7.4, sterilized by filtration through a […] millipore filter and kept at 4°C under nitrogen in the dark until use (up to 3 weeks). Before use LDL were dialysed against ethylenediaminetetraacetic acid free phosphate buffered saline pH 7.4 on Sephadex G-25 columns (PD-10, Pharmacia Fine Chemicals, Uppsala, Sweden) and then LDL were filtered through a sterile 0.22 µM filter. LDL in phosphate buffered saline (50 µg lipoprotein protein/ml) were oxidized by incubation at 25°C with 20 µM CuSO4 for 3 hours. The lercanidipine solution was prepared as a 10^-2 M stock solution in methanol and added as ethanol solution (maximum 1% v/v) prior to addition of copper. The effect of lercanidipine on the oxidation of LDL was determined by continuous monitoring the conjugated diene formation by recording the increase in the absorbance at 234 nm at 5 min intervals during a three hours period, against a phosphate buffered saline blank, using a UV spectrophotometer (Beckman DU 640) with continuous reading with a automatic 6-cell changer. The lag time of the onset of oxidation was calculated as the intercept between the line of the maximum slope of the propagation phase and the baseline where absorbance was that at time 0.

[4] = system: Human vascular myocytes (A 617 from human femoral artery); assay: Myocytes growth inhibition measured by cell count (human); format: cell-based; conditions: cell count after 72 hours with 10% fetal calf serum, read-out: IC50 (concentration required to inhibit cell growth by 50%)
Description: Migration of myocytes was investigated for the present invention using rat aortic smooth muscle cells in the presence of fibrinogen as chemotactic factor, whereas for studies on their proliferation rat and human cells were used. Cell count and [^3H]-thymidine incorporation were used to evaluate myocytes growth. The methodology was as follows:
Myocytes were cultured from the intima-medial layer of the aortas of male Sprague-Dawley rats (200-250 g). Cells were grown in monolayers at 37°C in a humidified atmosphere of 5% CO2 in Eagle's minimum essential medium supplemented with 10% (v/v) fetal calf serum, 100 U/ml penicillin, 0.1 mg/ml streptomycin, 20 mM tricine buffer and 1% (v/v) non-essential amino acid solution. The medium was changed every third day. Cells were used between the 4th and 10th passage. Cell viability was timely assessed by tripan blue exclusion. Myocytes were identified for growth behaviour, morphology and using monoclonal antibody specific for a-actin, the actin isoform typical of myocytes. Human vascular myocytes (A 617 from human femoral artery) were grown in the same culture conditions. […] Cell proliferation was evaluated by cell count after trypsinization of the monolayers using a Coulter Counter model ZM. Cell viability was assessed by tripan blue exclusion, and found to be higher than 95% at the drug concentrations used.

[5] = system: mouse peritoneal macrophages; assay: Cholesterol esterification induced by AcLDL in macrophages; format: cell-based; conditions: comparison of lercanidipine and enantiomers; Figure 3
Description: Cholesterol esterification induced by AcLDL in mouse peritoneal macrophages was investigated as follows. Mouse peritoneal macrophages were obtained by peritoneal lavage from mice (Balb/c Charles River, Calco, Italy) three days after intraperitoneal injection of thioglycolate. Cells (2-3x10^6) were plated in 35 mm wells with Dulbecco's minimum essential medium containing 10% fetal bovine serum. After 3 hours, the dishes were washed to eliminate unattached cells and maintained in Dulbecco's minimum essential medium plus 10% fetal bovine serum for 24 hours before use. After cell plating, experiments were performed at 37°C in serum free Dulbecco's minimum essential medium containing 0.2% essentially fatty acid-free bovine serum albumin plus the indicated additions. Human LDL (d=1.019-1.063 g/ml) were isolated from plasma of healthy volunteers by sequential ultracentrifugation (Beckman L5-50, Palo Alto, CA). […] Trichloroacetic acid non precipitable radioactivity was below 2% of total. […] Cholesterol esterification was measured after addition of [1-^14C] oleic acid ([…] sample) complexed with bovine serum albumin during the last 1 or 2 hours of incubation and subsequent determination of radioactivity associated with cellular cholesteryl esters. […]

Structure (SMILES): COC(=O)C1=C(C)NC(C)=C(C(=O)OC(C)(C)CN(C)CCC(c2ccccc2)c2ccccc2)[C@H]1c1cccc([N+](=O)[O-])c1 [(S)-Lercanidipine, (S)-(+)-methyl 1,1-N-trimethyl-N-(3,3-diphenylpropyl)-2-aminoethyl 1,4-dihydro--2,6-dimethyl-4-(3-nitrophenyl)-pyridine-3,5-dicarboxylate]
- relative potency on cholesterol esterification [1]: least potent among the compounds tested
- antihypertensive efficacy compared with the racemate (renal hypertensive dogs): two fold more efficacious than the racemate
- effect on arterial blood pressure (renal hypertensive dogs): dose-related decrease in arterial blood pressure
- ED25 (dose inducing 25% decrease in DBP at peak effect), 95% C.L. (renal hypertensive dogs): 0.4 (0.3 ö 0.7) mg/kg

Structure (SMILES): COC(=O)C1=C(C)NC(C)=C(C(=O)OCCN(C)Cc2ccccc2)C1c1cccc([N+](=O)[O-])c1 (stereo not drawn) [NI, Nicardipine, reference compound]
- IC50 ([2]; Myocytes from SD Rat): 38.8 µM

Structure (SMILES): COC(=O)C1=C(C)NC(C)=C(C(=O)OC(C)(C)CN(C)CCC(c2ccccc2)c2ccccc2)C1c1cccc([N+](=O)[O-])c1 (racemic) [Lercanidipine, methyl 1,1,N-trimethyl-N-(3,3-diphenylpropyl)-2-aminoethyl 1,4-dihydro-2,6-dimethyl--4-(3-nitrophenyl)-pyridine-3,5-dicarboxylate]
- IC50 ([1]; Mus musculus, Macrophage, cells loaded 24 hours with 50 µg acetyl LDL): ~7 µM
- inhibition of cholesterol esterification ([1]; maximum, cells loaded 24 hours with 50 µg acetyl LDL): up to 70%
- IC50 ([2]; Myocytes from SD Rat): 31.2 µM
- IC50 ([2]; Myocytes from SHR Rat): 14.1 µM
- IC50 ([2]; Myocytes from WK Rat): 16.4 µM
- inhibition of lipid oxidation [3]: very high inhibition of lipid oxidation
- effect on the lag-phase of LDL oxidation (LDL; 10 µM): doubled the lag-phase of LDL oxidation
- potency on LDL oxidation compared with lacidipine (LDL; "in these assays" (LDL oxidation)): one order of magnitude higher than that of lacidipine
- Lag time (LDL; Lercanidipine 0.5 µM): 45.1 ± 3.7
- Lag time (LDL; Lercanidipine 1.0 µM): 49.8 ± 4.7
- Lag time (LDL; Lercanidipine 2.5 µM, P < 0.05): 53.6 ± 3.3
- Lag time (LDL; Lercanidipine 5.0 µM, P < 0.01): 73.2 ± 4.8
- Lag time (LDL; Lercanidipine 10.0 µM, P < 0.01): 112.7 ± 5.2
- IC50 [4]: 25.3 µM
- effect on arterial blood pressure (renal hypertensive dogs): dose-related decrease in arterial blood pressure

Structure (SMILES): COC(=O)C1=C(C)NC(C)=C(C(=O)OC(C)(C)CN(C)CCC(c2ccccc2)c2ccccc2)[C@@H]1c1cccc([N+](=O)[O-])c1 [(R)-Lercanidipine, (R)-(-)-methyl 1,1-N-triethyl-N-(3,3-diphenylpropyl)-2-aminoethyl 1,4-dihydro--2,6-dimethyl-4-(3-nitrophenyl)-pyridine-3,5-dicarboxylate]
- relative potency on cholesterol esterification [1]: slightly more potent than the racemate
- ED25 (dose inducing 25% decrease in DBP at peak effect), 95% C.L. (renal hypertensive dogs): > > 30 mg/kg
- relative activity on cholesterol esterification induced by AcLDL [5]: most active compound

Structure (SMILES): CCOC(=O)C1=C(C)NC(C)=C(C(=O)OCC)C1c1ccccc1/C=C/C(=O)OC(C)(C)C [LA, Lacidipine, reference compound]
- IC50 ([2]; Myocytes from SD Rat): 23.6 µM
